The IC50 is the concentration at which inhibition is half-maximal.

These results are taken from patent publication US9073926B2, “Heterocyclic compounds containing a pyrrolopyridine or benzimidazole core” (Boehringer Ingelheim International GmbH, priority 2009, dated 2015).

Human RSK2, sequence (P51812 whole entry): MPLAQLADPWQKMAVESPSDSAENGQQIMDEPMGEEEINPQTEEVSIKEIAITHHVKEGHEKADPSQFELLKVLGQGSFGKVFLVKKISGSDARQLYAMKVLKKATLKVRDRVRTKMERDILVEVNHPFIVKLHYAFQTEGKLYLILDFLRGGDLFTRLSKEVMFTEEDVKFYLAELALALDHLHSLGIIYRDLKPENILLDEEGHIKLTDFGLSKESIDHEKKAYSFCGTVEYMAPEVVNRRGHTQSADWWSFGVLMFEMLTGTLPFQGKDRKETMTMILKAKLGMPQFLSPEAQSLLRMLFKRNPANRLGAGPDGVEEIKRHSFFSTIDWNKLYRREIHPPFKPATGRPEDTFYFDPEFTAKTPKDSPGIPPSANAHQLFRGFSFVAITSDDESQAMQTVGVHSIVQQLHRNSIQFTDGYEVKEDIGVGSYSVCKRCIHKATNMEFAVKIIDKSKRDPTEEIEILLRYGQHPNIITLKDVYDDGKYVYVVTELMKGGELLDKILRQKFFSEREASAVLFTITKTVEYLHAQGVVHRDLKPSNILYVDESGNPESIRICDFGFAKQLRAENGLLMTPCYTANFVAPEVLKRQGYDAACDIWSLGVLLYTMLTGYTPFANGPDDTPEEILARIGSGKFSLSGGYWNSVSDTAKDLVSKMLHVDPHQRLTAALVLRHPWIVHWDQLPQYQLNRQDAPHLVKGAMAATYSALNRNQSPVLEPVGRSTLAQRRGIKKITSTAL

This assay deals with Human RSK2 (Homo sapiens (Human), UniProt P51812). The assay is described as follows: Human RSK2 Assay (Kinase Glo Plus, residual ATP). It is filed as biochemical. Conditions: 0.75 nM His-RSK2, 0.75 μM ATP, 1.0 μM S6 Kinase/RSK Substrate Peptide 1. In a few lines:
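His-RSK2 (0.75 nM) with 0.75 μM ATP and 1.0 μM S6 kinase/RSK substrate peptide in HEPES pH 7.5 buffer with Mg/Mn, 90 min at 28° C. Residual ATP read by Kinase Glo Plus luminescence; percent of control fitted to a 4-parameter logistic, IC50 taken as inflection point.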
For orientation: Kinase-Glo measures the ATP left after a reaction by luminescence.
Turning to `CC(C)n1ncc2cc(NC(=O)c3ccc4cc5n(c4n3)[C@H](C)CNC5=O)cnc21` [Example 66, (9R)-9-methyl-6-oxo-N-[1-(propan-2-yl)-1H-pyrazolo[3,4-b]pyridin-5-yl]-6,7,8,9-tetrahydropyrido[3′,2′:4,5]pyrrolo[1,2-a]pyrazine-2-carboxamide], the IC50 worked out at 4 nM.
The value for `O=C(Nc1nc2cc(Cl)ccc2[nH]1)c1ccc2cc3n(c2n1)CCCNC3=O` [Example 67, N-(5-chloro-1H-benzimidazol-2-yl)-6-oxo-7,8,9,10-tetrahydro-6H-pyrido[3′,2′:4,5]pyrrolo[1,2-a][1,4]diazepine-2-carboxamide] was 6.1 nM.
In the case of `CC1CCNC(=O)c2cc3ccc(C(=O)Nc4cnn(Cc5ccncc5)c4)nc3n21` (stereo not drawn) [Example 68, 10-methyl-6-oxo-N-[1-(pyridin-4-ylmethyl)-1H-pyrazol-4-yl]-7,8,9,10-tetrahydro-6H-pyrido[3′,2′:4,5]pyrrolo[1,2-a][1,4]diazepine-2-carboxamide] it was 0.27 nM; in that of `CCn1c(NC(=O)c2ccc3cc4n(c3n2)C(C)CCNC4=O)nc2ccccc21` (stereo not drawn) [Example 69, N-(1-ethyl-1H-benzimidazol-2-yl)-10-methyl-6-oxo-7,8,9,10-tetrahydro-6H-pyrido[3′,2′:4,5]pyrrolo[1,2-a][1,4]diazepine-2-carboxamide], 15 nM; in that of `CC1CCNC(=O)c2cc3ccc(C(=O)Nc4nc5ccccc5n4CCCN(C)C)nc3n21` (stereo not drawn) [Example 70, N-{[3-(dimethylamino)propyl]-1H-benzimidazol-2-yl}-10-methyl-6-oxo-7,8,9,10-tetrahydro-6H-pyrido[3′,2′:4,5]pyrrolo[1,2-a][1,4]diazepine-2-carboxamide], 27 nM.
The value for `CCn1c(NC(=O)c2ccc3cc4n(c3n2)[C@@H](C)CNC4=O)nc2ccccc21` [Example 71, (9S)-N-(1-ethyl-1H-benzimidazol-2-yl)-9-methyl-6-oxo-6,7,8,9-tetrahydropyrido[3′,2′:4,5]pyrrolo[1,2-a]pyrazine-2-carboxamide] was 54.5 nM.
With `CCn1c(NC(=O)c2ccc3cc4n(c3n2)[C@H](C)CNC4=O)nc2ccccc21` [Example 72, (9R)-N-(1-ethyl-1H-benzimidazol-2-yl)-9-methyl-6-oxo-6,7,8,9-tetrahydropyrido[3′,2′:4,5]pyrrolo[1,2-a]pyrazine-2-carboxamide], the concentration for half-maximal inhibition (IC50) was 26.5 nM.
On to `C[C@H]1CNC(=O)c2cc3ccc(C(=O)Nc4nc5ccccc5n4CCCN(C)C)nc3n21` [Example 75, (9S)-N-{1-[3-(dimethylamino)propyl]-1H-benzimidazol-2-yl}-9-methyl-6-oxo-6,7,8,9-tetrahydropyrido[3′,2′:4,5]pyrrolo[1,2-a]pyrazine-2-carboxamide], for which the IC50 stood at 265 nM.
For `C[C@@H]1CNC(=O)c2cc3ccc(C(=O)Nc4nc5ccccc5n4CCCN(C)C)nc3n21` [Example 76, (9R)-N-{1-[3-(dimethylamino)propyl]-1H-benzimidazol-2-yl}-9-methyl-6-oxo-6,7,8,9-tetrahydropyrido[3′,2′:4,5]pyrrolo[1,2-a]pyrazine-2-carboxamide], the IC50 worked out at 54 nM.
The value for `CC(C)(C)c1cc(NC(=O)c2ccc3cc4n(c3n2)CCCNC4=O)no1` [Example 79, N-(5-tert-butyl-1,2-oxazol-3-yl)-6-oxo-7,8,9,10-tetrahydro-6H-pyrido[3′,2′:4,5]pyrrolo[1,2-a][1,4]diazepine-2-carboxamide] was 19 nM.
The value for `Cc1cc(NC(=O)c2ccc3cc4n(c3n2)CCCNC4=O)no1` [Example 80, N-(5-methyl-1,2-oxazol-3-yl)-6-oxo-7,8,9,10-tetrahydro-6H-pyrido[3′,2′:4,5]pyrrolo[1,2-a][1,4]diazepine-2-carboxamide] was 19 nM.
In the case of `O=C(Nc1cc(-c2ccccc2)no1)c1ccc2cc3n(c2n1)CCCNC3=O` [Example 81, 6-oxo-N-(3-phenyl-1,2-oxazol-5-yl)-7,8,9,10-tetrahydro-6H-pyrido[3′,2′:4,5]pyrrolo[1,2-a][1,4]diazepine-2-carboxamide] it was 4.3 nM.
Consider `Cc1cc(NC(=O)c2ccc3cc4n(c3n2)C(C)CCNC4=O)no1` (stereo not drawn) [Example 82, 10-methyl-N-(5-methyl-1,2-oxazol-3-yl)-6-oxo-7,8,9,10-tetrahydro-6H-pyrido[3′,2′:4,5]pyrrolo[1,2-a][1,4]diazepine-2-carboxamide], for which the IC50 worked out at 5.2 nM.
For the compound `Cc1cc(NC(=O)c2ccc3cc4n(c3n2)[C@@H](C)CNC4=O)no1` [Example 83, (9S)-9-methyl-N-(5-methyl-1,2-oxazol-3-yl)-6-oxo-6,7,8,9-tetrahydropyrido[3′,2′:4,5]pyrrolo[1,2-a]pyrazine-2-carboxamide], the IC50 was 380 nM.
`Cc1cc(NC(=O)c2ccc3cc4n(c3n2)[C@H](C)CNC4=O)no1` [Example 84, (9R)-9-methyl-N-(5-methyl-1,2-oxazol-3-yl)-6-oxo-6,7,8,9-tetrahydropyrido[3′,2′:4,5]pyrrolo[1,2-a]pyrazine-2-carboxamide]: the IC50 turned out to be 6.6 nM.
In the case of `CCc1cc(NC(=O)c2ccc3cc4n(c3n2)CC(C)(C)CNC4=O)no1` [Example 88, N-(5-ethyl-1,2-oxazol-3-yl)-9,9-dimethyl-6-oxo-7,8,9,10-tetrahydro-6H-pyrido[3′,2′:4,5]pyrrolo[1,2-a][1,4]diazepine-2-carboxamide] it was 109 nM.
In the case of `CC(C)c1cc(NC(=O)c2ccc3cc4n(c3n2)CC(C)(C)CNC4=O)no1` [Example 89, 9,9-dimethyl-6-oxo-N-[5-(propan-2-yl)-1,2-oxazol-3-yl]-7,8,9,10-tetrahydro-6H-pyrido[3′,2′:4,5]pyrrolo[1,2-a][1,4]diazepine-2-carboxamide] it was 125 nM.
On to `CC1(C)CNC(=O)c2cc3ccc(C(=O)Nc4cc(C5CC5)on4)nc3n2C1` [Example 90, N-(5-cyclopropyl-1,2-oxazol-3-yl)-9,9-dimethyl-6-oxo-7,8,9,10-tetrahydro-6H-pyrido[3′,2′:4,5]pyrrolo[1,2-a][1,4]diazepine-2-carboxamide], for which the IC50 is 43 nM.
In the case of `Cc1cc(NC(=O)c2ccc3cc4n(c3n2)CC(C)(C)CNC4=O)no1` [Example 91, 9,9-dimethyl-N-(5-methyl-1,2-oxazol-3-yl)-6-oxo-7,8,9,10-tetrahydro-6H-pyrido[3′,2′:4,5]pyrrolo[1,2-a][1,4]diazepine-2-carboxamide] it was 395 nM; in that of `CC1(C)CNC(=O)c2cc3ccc(C(=O)Nc4cc(-c5ccccc5)on4)nc3n2C1` [Example 92, 9,9-dimethyl-6-oxo-N-(5-phenyl-1,2-oxazol-3-yl)-7,8,9,10-tetrahydro-6H-pyrido[3′,2′:4,5]pyrrolo[1,2-a][1,4]diazepine-2-carboxamide], 502 nM; in that of `CC1(C)CNC(=O)c2cc3ccc(C(=O)Nc4cc(Cc5ccccc5)on4)nc3n2C1` [Example 93, N-(5-benzyl-1,2-oxazol-3-yl)-9,9-dimethyl-6-oxo-7,8,9,10-tetrahydro-6H-pyrido[3′,2′:4,5]pyrrolo[1,2-a][1,4]diazepine-2-carboxamide], 360 nM.
As to `CC1CCNC(=O)c2cc3ccc(C(=O)Nc4cc(Cc5ccccc5)on4)nc3n21` (stereo not drawn) [Example 94, N-(5-benzyl-1,2-oxazol-3-yl)-10-methyl-6-oxo-7,8,9,10-tetrahydro-6H-pyrido[3′,2′:4,5]pyrrolo[1,2-a][1,4]diazepine-2-carboxamide], the IC50 worked out at 3.3 nM.
As for `O=C(Nc1cc(Cc2ccccc2)no1)c1ccc2cc3n(c2n1)CCCNC3=O` [Example 95, N-(3-benzyl-1,2-oxazol-5-yl)-6-oxo-7,8,9,10-tetrahydro-6H-pyrido[3′,2′:4,5]pyrrolo[1,2-a][1,4]diazepine-2-carboxamide], the IC50 stood at 3.6 nM.
The value for `CC1CCNC(=O)c2cc3ccc(C(=O)Nc4cc(Cc5ccccc5)no4)nc3n21` (stereo not drawn) [Example 96, N-(3-benzyl-1,2-oxazol-5-yl)-10-methyl-6-oxo-7,8,9,10-tetrahydro-6H-pyrido[3′,2′:4,5]pyrrolo[1,2-a][1,4]diazepine-2-carboxamide] was 13 nM.
The value for `C[C@H]1CNC(=O)c2cc3ccc(C(=O)Nc4cc(Cc5ccccc5)on4)nc3n21` [Example 97, (9S)-N-(5-benzyl-1,2-oxazol-3-yl)-9-methyl-6-oxo-6,7,8,9-tetrahydropyrido[3′,2′:4,5]pyrrolo[1,2-a]pyrazine-2-carboxamide] was 490 nM.
As to `C[C@@H]1CNC(=O)c2cc3ccc(C(=O)Nc4cc(Cc5ccccc5)on4)nc3n21` [Example 98, (9R)-N-(5-benzyl-1,2-oxazol-3-yl)-9-methyl-6-oxo-6,7,8,9-tetrahydropyrido[3′,2′:4,5]pyrrolo[1,2-a]pyrazine-2-carboxamide], the IC50 stood at 3.9 nM.
In the case of `CC1CNC(=O)c2cc3ccc(C(=O)Nc4cccnc4)nc3n21` (stereo not drawn) [Example 101, 9-methyl-6-oxo-N-(pyridin-3-yl)-6,7,8,9-tetrahydropyrido[3′,2′:4,5]pyrrolo[1,2-a]pyrazine-2-carboxamide] it was 120 nM; in that of `CNC(=O)c1csc(NC(=O)c2ccc3cc4n(c3n2)C(C)CNC4=O)n1` (stereo not drawn) [Example 102, 9-methyl-N-[4-(methylcarbamoyl)-1,3-thiazol-2-yl]-6-oxo-6,7,8,9-tetrahydropyrido[3′,2′:4,5]pyrrolo[1,2-a]pyrazine-2-carboxamide], 130 nM.
In the case of `CC1CNC(=O)c2cc3ccc(C(=O)Nc4nccs4)nc3n21` (stereo not drawn) [Example 103, 9-methyl-6-oxo-N-(1,3-thiazol-2-yl)-6,7,8,9-tetrahydropyrido[3′,2′:4,5]pyrrolo[1,2-a]pyrazine-2-carboxamide] it was 330 nM.
The value for `Cn1cc(NC(=O)c2ccc3cc4n(c3n2)CCCNC4=O)nc1C(=O)NC1CCCC1` [Example 104, N-[2-(cyclopentylcarbamoyl)-1-methyl-1H-imidazol-4-yl]-6-oxo-7,8,9,10-tetrahydro-6H-pyrido[3′,2′:4,5]pyrrolo[1,2-a][1,4]diazepine-2-carboxamide] was 1.6 nM.
